Source: ChEMBL document CHEMBL4184286, “Discovery of morpholine-based aryl sulfonamides as Nav1.7 inhibitors” (Bioorg Med Chem Lett, 2018)

How the values were obtained:
[1] = molecular target: T1, Sodium channel protein type 9 subunit alpha (Homo sapiens, UniProt Q15858); assay: Antagonist activity at recombinant human Nav1.7 expressed in HEK293 cells assessed as reduction in channel current at -60 mV holding potential after 600 secs by barracuda automated electrophysiology method; type: cell-based
Target sequence in this assay (Q15858 whole entry): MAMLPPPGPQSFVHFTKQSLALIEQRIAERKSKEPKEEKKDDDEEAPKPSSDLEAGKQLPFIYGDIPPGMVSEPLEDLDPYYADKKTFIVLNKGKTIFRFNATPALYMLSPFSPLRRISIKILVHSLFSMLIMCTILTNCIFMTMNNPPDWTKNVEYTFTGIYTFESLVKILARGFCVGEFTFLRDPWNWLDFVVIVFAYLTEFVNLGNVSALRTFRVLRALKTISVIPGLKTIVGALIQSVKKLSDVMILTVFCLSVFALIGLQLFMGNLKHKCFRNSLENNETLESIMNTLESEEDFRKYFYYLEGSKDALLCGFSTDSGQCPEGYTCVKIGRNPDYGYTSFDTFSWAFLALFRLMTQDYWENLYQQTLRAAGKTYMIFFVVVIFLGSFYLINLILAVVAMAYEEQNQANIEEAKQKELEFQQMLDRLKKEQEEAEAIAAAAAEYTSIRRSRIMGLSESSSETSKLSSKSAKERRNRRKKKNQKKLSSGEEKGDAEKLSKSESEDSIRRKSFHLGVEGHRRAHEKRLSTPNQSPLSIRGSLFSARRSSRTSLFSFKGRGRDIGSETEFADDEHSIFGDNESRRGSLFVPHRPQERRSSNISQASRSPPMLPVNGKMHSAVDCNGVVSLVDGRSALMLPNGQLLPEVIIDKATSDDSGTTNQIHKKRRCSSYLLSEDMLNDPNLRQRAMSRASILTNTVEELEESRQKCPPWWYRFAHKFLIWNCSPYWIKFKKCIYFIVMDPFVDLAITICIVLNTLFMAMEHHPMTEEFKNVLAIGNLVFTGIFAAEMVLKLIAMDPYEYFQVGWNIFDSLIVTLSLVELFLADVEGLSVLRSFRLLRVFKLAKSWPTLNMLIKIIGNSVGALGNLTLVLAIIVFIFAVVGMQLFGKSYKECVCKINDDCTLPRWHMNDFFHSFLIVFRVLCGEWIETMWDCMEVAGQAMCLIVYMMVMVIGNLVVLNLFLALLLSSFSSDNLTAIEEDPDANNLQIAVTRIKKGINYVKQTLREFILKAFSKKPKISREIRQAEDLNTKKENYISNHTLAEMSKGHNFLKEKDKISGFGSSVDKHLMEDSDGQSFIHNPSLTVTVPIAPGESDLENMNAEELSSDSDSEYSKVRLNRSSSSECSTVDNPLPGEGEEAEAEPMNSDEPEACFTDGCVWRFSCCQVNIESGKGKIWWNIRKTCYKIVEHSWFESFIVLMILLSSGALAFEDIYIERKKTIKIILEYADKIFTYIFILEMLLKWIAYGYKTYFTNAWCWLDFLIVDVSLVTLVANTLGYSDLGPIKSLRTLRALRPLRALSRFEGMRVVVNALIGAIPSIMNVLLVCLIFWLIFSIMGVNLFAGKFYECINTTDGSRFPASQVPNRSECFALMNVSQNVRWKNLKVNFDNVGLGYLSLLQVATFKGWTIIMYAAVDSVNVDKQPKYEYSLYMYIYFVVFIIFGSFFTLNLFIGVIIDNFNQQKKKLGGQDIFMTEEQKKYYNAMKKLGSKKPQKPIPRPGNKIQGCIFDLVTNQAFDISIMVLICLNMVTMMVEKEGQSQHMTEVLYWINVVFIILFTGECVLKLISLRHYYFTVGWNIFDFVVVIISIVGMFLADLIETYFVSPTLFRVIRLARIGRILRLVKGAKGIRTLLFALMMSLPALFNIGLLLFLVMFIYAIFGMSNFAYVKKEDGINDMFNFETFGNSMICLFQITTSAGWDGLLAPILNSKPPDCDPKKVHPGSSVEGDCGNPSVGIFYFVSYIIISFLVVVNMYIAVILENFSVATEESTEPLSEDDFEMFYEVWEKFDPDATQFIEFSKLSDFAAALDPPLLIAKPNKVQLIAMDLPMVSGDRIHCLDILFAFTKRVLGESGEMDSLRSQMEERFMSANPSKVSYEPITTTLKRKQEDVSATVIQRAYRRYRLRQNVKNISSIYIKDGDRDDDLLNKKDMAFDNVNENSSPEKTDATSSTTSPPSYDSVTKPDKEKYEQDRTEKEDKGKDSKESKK

[2] = molecular target: Sodium channel protein type 5 subunit alpha (Homo sapiens, UniProt Q14524); assay: Antagonist activity at recombinant human Nav1.5 expressed in HEK293 cells assessed as reduction in channel current at -50 mV holding potential after 600 secs by barracuda automated electrophysiology method; type: ADME, cell-based
[3] = molecular target: T1, Sodium channel protein type 9 subunit alpha; assay: Antagonist activity at recombinant human Nav1.7 expressed in HEK293 cells assessed as reduction in peak inward current at -65 mV holding potential by patch clamp electrophysiology; type: cell-based
Target sequence in this assay (Q15858 whole entry): as above

[4] = molecular target: T1, Sodium channel protein type 9 subunit alpha; assay: Antagonist activity at recombinant human Nav1.7 expressed in HEK293 cells assessed as reduction in peak inward current at 100 nM at -120 mV holding potential by patch clamp electrophysiology; type: cell-based
Target sequence in this assay (Q15858 whole entry, looked up): as the sequence (Q15858 whole entry) above

[5] = molecular target: T1, Sodium channel protein type 9 subunit alpha; assay: Antagonist activity at recombinant human Nav1.7 expressed in HEK293 cells assessed as reduction in peak inward current at 1 uM at -120 mV holding potential by patch clamp electrophysiology; type: cell-based
Target sequence in this assay (Q15858 whole entry, looked up): as the sequence (Q15858 whole entry) above

[6] = molecular target: Sodium channel protein type 2 subunit alpha (Homo sapiens, UniProt Q99250); assay: Antagonist activity at recombinant human Nav1.2 assessed as reduction in channel current by barracuda automated electrophysiology method
[7] = molecular target: Sodium channel protein type 8 subunit alpha (Homo sapiens, UniProt Q9UQD0); assay: Antagonist activity at recombinant human Nav1.6 assessed as reduction in channel current by barracuda automated electrophysiology method

Chain of Sodium channel protein type 5 subunit alpha (Q14524 whole entry): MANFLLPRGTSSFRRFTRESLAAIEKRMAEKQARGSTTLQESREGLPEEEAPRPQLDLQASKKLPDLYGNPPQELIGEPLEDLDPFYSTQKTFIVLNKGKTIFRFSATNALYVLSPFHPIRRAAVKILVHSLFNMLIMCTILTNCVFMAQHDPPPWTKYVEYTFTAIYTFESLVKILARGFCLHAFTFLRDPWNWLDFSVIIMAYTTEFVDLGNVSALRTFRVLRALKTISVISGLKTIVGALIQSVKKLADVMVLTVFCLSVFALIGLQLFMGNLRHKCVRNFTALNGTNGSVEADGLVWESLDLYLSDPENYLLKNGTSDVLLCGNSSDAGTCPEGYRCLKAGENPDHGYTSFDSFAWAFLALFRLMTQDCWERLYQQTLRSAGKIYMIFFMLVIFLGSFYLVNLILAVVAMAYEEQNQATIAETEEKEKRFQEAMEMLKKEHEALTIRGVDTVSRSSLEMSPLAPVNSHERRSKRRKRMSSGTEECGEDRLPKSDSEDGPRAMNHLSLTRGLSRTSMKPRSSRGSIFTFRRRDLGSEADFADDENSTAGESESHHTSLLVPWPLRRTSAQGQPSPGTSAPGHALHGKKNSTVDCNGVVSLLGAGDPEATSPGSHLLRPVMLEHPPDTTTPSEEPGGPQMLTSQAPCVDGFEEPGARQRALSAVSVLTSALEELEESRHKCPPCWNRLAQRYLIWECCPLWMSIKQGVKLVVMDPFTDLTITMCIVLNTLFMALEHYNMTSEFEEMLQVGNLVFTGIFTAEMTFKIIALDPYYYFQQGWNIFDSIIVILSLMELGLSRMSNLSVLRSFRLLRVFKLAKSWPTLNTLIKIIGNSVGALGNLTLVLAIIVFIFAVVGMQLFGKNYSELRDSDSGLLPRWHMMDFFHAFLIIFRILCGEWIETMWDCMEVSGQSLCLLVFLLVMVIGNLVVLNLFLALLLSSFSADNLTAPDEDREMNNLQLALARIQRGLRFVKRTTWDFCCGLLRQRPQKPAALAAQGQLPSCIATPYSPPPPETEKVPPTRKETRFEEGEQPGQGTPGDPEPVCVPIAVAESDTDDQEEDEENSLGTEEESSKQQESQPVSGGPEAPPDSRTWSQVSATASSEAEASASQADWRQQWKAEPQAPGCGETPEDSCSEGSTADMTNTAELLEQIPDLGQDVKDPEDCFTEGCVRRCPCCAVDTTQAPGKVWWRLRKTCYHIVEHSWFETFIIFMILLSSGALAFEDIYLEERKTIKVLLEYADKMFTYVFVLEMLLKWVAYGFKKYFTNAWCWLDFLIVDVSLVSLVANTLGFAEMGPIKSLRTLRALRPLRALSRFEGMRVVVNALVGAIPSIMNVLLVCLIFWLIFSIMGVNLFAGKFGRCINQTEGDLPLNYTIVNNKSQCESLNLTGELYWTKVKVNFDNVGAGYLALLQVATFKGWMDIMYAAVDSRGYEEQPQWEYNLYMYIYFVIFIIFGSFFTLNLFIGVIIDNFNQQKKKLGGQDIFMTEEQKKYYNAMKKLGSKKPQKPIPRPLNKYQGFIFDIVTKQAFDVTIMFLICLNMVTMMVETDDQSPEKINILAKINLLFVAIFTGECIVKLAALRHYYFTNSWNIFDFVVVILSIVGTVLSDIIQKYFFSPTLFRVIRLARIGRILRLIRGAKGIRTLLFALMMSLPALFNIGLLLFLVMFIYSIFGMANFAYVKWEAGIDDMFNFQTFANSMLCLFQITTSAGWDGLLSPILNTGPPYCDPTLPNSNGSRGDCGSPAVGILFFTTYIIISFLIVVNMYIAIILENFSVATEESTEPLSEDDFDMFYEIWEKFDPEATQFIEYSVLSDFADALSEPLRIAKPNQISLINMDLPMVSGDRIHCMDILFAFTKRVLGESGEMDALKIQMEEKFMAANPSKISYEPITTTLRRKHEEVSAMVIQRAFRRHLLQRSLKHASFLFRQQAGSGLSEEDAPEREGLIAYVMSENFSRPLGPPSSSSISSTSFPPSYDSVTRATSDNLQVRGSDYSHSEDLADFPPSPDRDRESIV

Q: Which results are given for `CC1(C)CN[C@H](c2cc(Cl)cc(Cl)c2)[C@@H](Oc2cc(F)c(S(=O)(=O)Nc3ncns3)cc2F)O1`?
A: IC50 [1]: 0.041 µM; IC50 [2]: 6 µM; IC50 [3]: 0.011 µM; inhibition [4]: 8%; inhibition [5]: 48%; IC50 [6]: 1.5 µM; IC50 [7]: 1.6 µM

Q: `O=S(=O)(Nc1ncns1)c1cc(F)c(OC2OCCNC2c2cc(Cl)cc(Cl)c2)cc1F` (single isomer, unassigned; isomer B) was tested. Which IC50 [1] did it give?
A: 0.028 µM

Q: And the IC50 [2]?
A: 5.6 µM

Q: For `N#Cc1cccc(C2NCCOC2Oc2cc(F)c(S(=O)(=O)Nc3ncns3)cc2F)c1` (single isomer, unassigned; isomer B), which IC50 [1] is on record?
A: 11 µM

Q: And the IC50 ([2]; hek293)?
A: > 30 µM

Q: Which results are given for `COc1ccccc1C1NCCOC1Oc1cc(F)c(S(=O)(=O)Nc2ncns2)cc1F` (single isomer, unassigned; isomer B)?
A: IC50 [1]: 4.6 µM; IC50 ([2]; hek293): > 30 µM

Q: How did the IC50 [1] turn out when `N#Cc1ccc(C2NCCOC2Oc2cc(F)c(S(=O)(=O)Nc3ncns3)cc2F)cc1` (single isomer, unassigned; isomer B) was run?
A: 4 µM

Q: And the IC50 ([2]; hek293)?
A: > 30 µM

Q: How did the IC50 [1] turn out when `O=S(=O)(Nc1ncns1)c1cc(F)c(OC2OCCNC2c2ccc(C(F)(F)F)cc2)cc1F` (single isomer, unassigned; isomer B) was run?
A: 9.7 µM

Q: And the IC50 ([2]; hek293)?
A: > 30 µM

Q: For `O=S(=O)(Nc1ncns1)c1cc(F)c(OC2OCCNC2c2ccc(Cl)c(Cl)c2)cc1F` (single isomer, unassigned; isomer B), which IC50 [1] is on record?
A: 0.17 µM

Q: What about the IC50 [2] of the same compound?
A: 3 µM

Q: Which IC50 [1] does the source give for `O=S(=O)(Nc1ncns1)c1cc(F)c(OC2OCCNC2c2cccc(C(F)(F)F)c2)cc1F` (single isomer, unassigned; isomer B) here?
A: 0.57 µM

Q: What about the IC50 [2] of the same compound?
A: 4.8 µM

Q: Which results are given for `COc1ccc(C2NCCOC2Oc2cc(F)c(S(=O)(=O)Nc3ncns3)cc2F)cc1` (single isomer, unassigned; isomer B)?
A: IC50 [1]: 1.8 µM; IC50 ([2]; hek293): > 30 µM

Q: Which IC50 [1] does the source give for `COc1cccc(C2NCCOC2Oc2cc(F)c(S(=O)(=O)Nc3ncns3)cc2F)c1` (single isomer, unassigned; isomer B) here?
A: 1.6 µM

Q: And the IC50 ([2]; hek293)?
A: > 30 µM

Q: With `Cn1nccc1C1NCCOC1Oc1cc(F)c(S(=O)(=O)Nc2ncns2)cc1F` (stereo in doubt; 55) as the compound, how does the IC50 [1] read?
A: 1.8 µM

Q: And the IC50 [2]?
A: > 30 µM
